From patent publication EP2924040A1, “2-Amino-1-(o-tolyl)pyrrolo[3,2-b]quinoxaline-3-carboxamide derivates” (Universität Zürich, priority 2014, dated 2015) come the findings set out here.

Experiment [1] relates to HT-29. Description: Cell culture and GI50 determination (resazurin). It counts as cell-based. The note with it: Homo sapiens; HT-29, resazurin. Here is the method: MDA-MB-231, HT-29, KM12, HOP-92 and A498 cells were plated at 10,000 cells per well (100 µL per well) in 96-well culture dishes and allowed to incubate for 24 h. The old media was removed, the cells were washed with PBS (phosphate-buffered saline) and fresh media was added. A 5 mmol/L solution of inhibitor (in 100% DMSO) was serially diluted in the culture media (12 different concentrations were used) and allowed to incubate for 72 h (MDA-MB-231) or 48h (A498). Control cells were treated with the same DMSO concentrations. After the incubation period the media was once more removed and the cells were washed with PBS to then be incubated with fresh media containing 86 nmol/L resazurin. After 3 hours, the fluorescence was quantified using a fluorescence microplate reader (Biotek, FLx800™) at the respective excitation and emission wavelength of 560 and 590 nm. Resazurin becomes fluorescent under mitochondrial reduction and its emission directly correlates with the metabolic stability of the cells. The measured fluorescence values were corrected from the control samples containing DMSO and GI50 values were determined by plotting the fraction of metabolically active cells against the log of the drug concentration. All measurements were performed at least in triplicate.

Experiment [2] relates to protein kinases. Description: Selectivity profile with respect to protein kinases. It counts as binding. The note with it: kinase groups TK, TKL, STE, CK1, AGC, CAMK, CMGC, other (Fig. 1). The text has this:
A selectivity profile of compound 2 with respect to protein kinases is depicted in Figure 1. The protein kinases are selected from tyrosine kinases (TK), tyrosine kinase-like kinases (TKL), STE-Group, Cell Kinases 1 (CK1), AGC-Group, Calmodulin/Calcium regulated kinases (CAMK), CMGC Group and other kinases. The larger the respective dot, the higher the binding affinity of the compound to the respective protein kinases. […] As per Kawasaki Y. and Freire E. in Drug Discovery Today, 2011 November; 16(21-22): 985-990, "[e]xtremely high affinity and selectivity are two of the most sought-after properties of drug molecules."

Experiment [3] relates to Breast HS578T. Description: NCI DTP Human Tumor Cell Line Screen (SRB). It counts as cell-based. Conditions: Hs-578T, 48 h. The procedure: (§1) Compound 2 was further screened against cancer cell lines by the National Cancer Institute (NCI). This screen was performed as per the description provided at http://dtp.nci.nih.gov/branches/btb/ivclsp.html. "The NCI 60 panel cell lines were grown in RPMI 1640 medium supplemented with 5% (v/v) fetal bovine serum and 2 mM L-glutamine at 37° C, 5 % CO2, 95 % air and 100 % relative humidity. Cells were seeded at 5,000 - 40,000 cells/well depending on their doubling time. After 24 hours of incubation, DMSO stock solutions of the compounds (400X) were added at 5 different concentrations (in […] serial dilutions). After 48 h cells were fixed with trichloroacetic acid (10% or 16% final concentration for adherent cells and suspension cells respectively) and incubated for 60 minutes at 4°C. After discarding the supernatant, plates were washed with water (5x) and air dried. Sulforhodamine B (SRB) solution (100 µl) at 0.4 % (w/v) in 1% acetic acid was added to each well and incubated for 10 minutes at 4°C, followed by washing with 1% acetic acid (5x) and air drying. The bound stain was solubilized with 10mM trizma base and determined by absorbance measurement on an automated plate reader at a wavelength of 515 nm. The percentage growth inhibition was calculated as followed, being Tz time zero measurements, C control growth measurements and Ti test growth experiments in the present of the drug. [(Ti-Tz)/(C-Tz)] x 100 for concentrations for which Ti>/=Tz [(Ti-Tz)/Tz] x 100 for concentrations for which Ti<Tz.
(§2) Three dose response parameters were calculated for each cell line. Growth inhibition of 50% (GI50) is calculated from [(Ti-Tz)/(C-Tz)] x 100 = 50 and corresponds to the drug concentration required in order to reduce by 50% the net protein increase in comparison to the control experiments. Total growth inhibition (TGI) is calculated from Ti = Tz. The LC50 indicates the drug concentration needed to reduce by 50% the measured protein at the end of the drug treatment as compared to that of the beginning and is derived from [(Ti-Tz)/Tz] x 100 = -50." Table 2: GI50 in a selection of cancer cell lines of the National Cancer Institute for compound 2

In experiment [4] the test system is NSCLC HOP92. Description: NCI DTP Human Tumor Cell Line Screen (SRB). It counts as cell-based. Conditions: HOP-92, NSCLC HOP92, 48 h. Here is the method:
as §1, §2

The subject of experiment [5] is Colon HT29. Description: NCI DTP Human Tumor Cell Line Screen (SRB). It counts as cell-based. Conditions: HT-29, Colon HT29, 48 h. Here is the method: as §1, §2
Experiment [6] has as its system Breast MDA-MB-231. Description: NCI DTP Human Tumor Cell Line Screen (SRB). It counts as cell-based. Conditions: Breast MDA-MB-231, 48 h. The procedure:
as §1, §2

For experiment [7], the system named is CNS SNB75. Description: NCI DTP Human Tumor Cell Line Screen (SRB). It counts as cell-based. The note with it: SNB-75, CNS SNB75, 48 h. The procedure:
as §1, §2

Experiment [8] has as its system Leukemia K562. Description: NCI DTP Human Tumor Cell Line Screen (SRB). The note with it: Leukemia K562, 48 h. It counts as cell-based. Here is the method:
as §1, §2

Experiment [9] has as its system Renal A498. Description: NCI DTP Human Tumor Cell Line Screen (SRB). The note with it: Renal A498, 48 h. It counts as cell-based. The procedure: as §1, §2
Experiment [10] relates to Renal RXF393. Description: NCI DTP Human Tumor Cell Line Screen (SRB). It counts as cell-based. Conditions: RXF 393, Renal RXF393, 48 h. The procedure:
as §1, §2

Experiment [11] deals with MDA-MB-231 breast cancer cells. Description: Efficacy in a Xenograft Mouse Model. It counts as in vivo. Conditions: female NCr Nu/Nu mice, subcutaneous MDA-MB-231, 50 mg/kg oral twice daily, 21 days. The procedure: The effect of compound 2 on MDA-MB-231 breast cancer cells was examined. The breast cancer cells were implanted subcutaneously in xenograft mouse models and the development of the body weight and the tumor volume were observed over time (21 days). Group 1 is the vehicle control group consisting of 9 animals, whereas group 2 consisted of 9 animals receiving 50 mg/kg of compound 2 twice-daily.
9 week old female NCr Nu/Nu mice (Charles River Laboratories, Inc.) were injected at the flank with 5x10^6 MDA-MB-231 cells. Once tumor volume reached 108-126 mm^3 (as measured by digital caliper) mice were randomized into a treatment and vehicle-control group of 9 animals each. The treatment group received oral doses of 50 mg/kg of compound 2 twice daily for 21 days (with the exception of a single dose on the first day), formulated as a homogeneous suspension in DMSO/1% methylcellulose (5/95, v/v). The control group received the same formulation but excluding compound 2. Tumor volume of all mice was evaluated bi-weekly up to day 19.

Experiment [12] concerns NCI-60 panel of cancer cell-lines. Description: NCI-60 DTP Human Tumor Cell Line Screen at 5 doses (whole panel). It counts as cell-based. The note with it: SNB-75, K562, A498, LOX IMV1, HS 578T and MDA-MB-231 among others (Fig. 5). The procedure:
Compound 2 was screened by the National Cancer Institute (NCI) at 5 doses on the NCI-60 DTP Human Tumor Cell Line Screen.
as §1, with “After discarding the supernatant, plates were washed with water (5x) and air dried. Sulforhodamine B (SRB) solution (100 µl) at 0.4 % (w/v) in 1% acetic acid was added to each well and incubated for 10 minutes at 4°C, followed by washing with 1% acetic acid (5x) and air drying.” left out, “[(Ti-Tz)/(C-Tz)] x 100 for concentrations for which Ti>/=Tz [(Ti-Tz)/Tz] x 100 for concentrations for which Ti<Tz.” left out
Three dose response parameters were calculated for each cell line. […] Total growth inhibition (TGI) is calculated from Ti = Tz. […]

Each structure is given as a SMILES string.

Regarding `Cc1ccc(O)cc1-n1c(N)c(C(N)=O)c2nc3ccccc3nc21` [Compound 2, 2-Amino-1-(5-hydroxy-2-methylphenyl)-1H-pyrrolo[2,3-b]quinoxaline-3-carboxamide], the 50% growth inhibitory concentration (GI50) (usually the concentration giving 50% growth inhibition) worked out at 4590 nM in experiment [1]; 100 nM in [3]; 152 nM in experiment [4]; 244 nM in [5]; 317 nM in [6]; 28 nM in [7]. The GI50 in experiment [8] stood at 229 nM; in experiment [9], 162 nM; in [10], 361 nM. Besides, the “selectivity profile (binding affinity) with respect to protein kinases” value in experiment [2] was “selectivity towards tyrosine kinases (TK)”. In addition, the group-median tumor volume result in experiment [11] is given as “remarkable group-median tumor volume control”. Further, the “potency (GI50 and/or TGI and/or LC50) relative to select cell-lines” value in experiment [12] is listed as “high potency”.
